Test results taken from PubChem BioAssay (NCI).
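Grown in 96-well plates, cells were treated for 48 hours with each compound at five concentrations. Insufficient inhibition: endpoint recorded as highest concentration tested. Here, GI50 denotes the concentration required for 50% inhibition of growth. TGI: concentration producing complete growth inhibition.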

Columns and labels:
Test in all cases: NCI-60 cell line screen, 48 h
HT29 colon = test system: HT29 colon
KM12 colon = test system: KM12 colon
CAKI-1 renal = test system: CAKI-1 renal
NCI-H226 lung = test system: NCI-H226 lung
A498 renal = test system: A498 renal
SNB-19 CNS = test system: SNB-19 CNS
OVCAR-3 ovarian = test system: OVCAR-3 ovarian
A549 NSCLC = test system: A549 NSCLC
SF-539 CNS = test system: SF-539 CNS
HOP-62 NSCLC = test system: HOP-62 NSCLC

Structure (SMILES)	GI50 (HT29 colon) [µM]	TGI (HT29 colon) [µM]	GI50 (KM12 colon) [µM]	TGI (KM12 colon) [µM]	GI50 (CAKI-1 renal) [µM]	TGI (CAKI-1 renal) [µM]	GI50 (NCI-H226 lung) [µM]	TGI (NCI-H226 lung) [µM]	GI50 (A498 renal) [µM]	TGI (A498 renal) [µM]	GI50 (SNB-19 CNS) [µM]	TGI (SNB-19 CNS) [µM]	GI50 (OVCAR-3 ovarian) [µM]	TGI (OVCAR-3 ovarian) [µM]	GI50 (A549 NSCLC) [µM]	TGI (A549 NSCLC) [µM]	GI50 (SF-539 CNS) [µM]	TGI (SF-539 CNS) [µM]	GI50 (HOP-62 NSCLC) [µM]	TGI (HOP-62 NSCLC) [µM]
CCN1CCN(Cc2ccc(NC(=O)Nc3nc(-c4cc(OC)c(OC)c(OC)c4)cs3)cc2C(F)(F)F)CC1	0.39	1.48	1.65	3.35	1.91	4.9	1.68	3.82	1.96	5.48	1.75	3.43	2.28	6.89	1.96	4.45	1.69	3.12		
Cc1ccc2ncnc(N(C)C3CCCCC3)c2c1			35.6	> 100	13.9	39	18.7	58.4	77.1	> 100	59.5	> 100	23.3	54.5	16.1	44.2			28.7	> 100
Cn1cc(-c2csc(-c3ccccc3)n2)c2cccnc21	14.2	27.2	12.5	25	7.1	31.7	16.6	42.4			15.9	47.8	16.3	32	16.9	38	14.2	28.3	15.5	29.5
Cc1[nH]c(=O)n2c(C)nnc2c1C(=O)O		> 100		> 100		> 100		> 100						> 100				> 100		> 100
CCCCCOC(=O)Nc1nc(=O)n(C2OC(C)C(O)C2O)cc1F (configuration not stated)	> 10000	> 10000	> 10000	> 10000	> 10000	> 10000					> 10000	> 10000					> 10000	> 10000	> 10000	> 10000
COC(=O)c1cc(O)ccc1O		> 100		> 100		> 100		> 100				> 100		> 100		> 100		> 100		> 100
O=C1NC(c2ccc3ccccc3c2)Nc2ccccc21 (configuration not stated)		> 100		> 100		> 100		> 100		> 100		> 100						> 100		> 100
CC1(C)N=C(N)N=C(N)N1c1ccc(OCC(=O)Nc2ccc(S(=O)(=O)F)cc2Cl)c(Cl)c1	2.57	> 100	4.63	> 100			57.8	> 100	13.3	> 100	> 100	> 100	5.34	> 100	2.5	> 100	4.77	> 100	7.81	> 100
CSC1=CC(=O)c2ccccc2C1=O	26.3	65.2	6.75	22.5	1.59	3.11	1.68	3.82			13.8	29.4	1.78	3.37	24.2	64.8	11.4	24.3	16.7	31.8
CC(=O)OCc1nnn2c1C(OC(C)=O)CC2 (configuration not stated)		> 100		> 100		> 100		> 100				> 100		> 100		> 100		> 100		
Clc1nc(Cl)c2ncn(-c3ccccc3)c2n1	3.87	13.5	12.8	25.8			12.1	28.5	12	25	10.7	23.9	1.69	3.46	12.9	29.8	10.6	27.3		
O=C(Cc1cc(O)ccc1O)NO			> 100	> 100	26.9	81.9	70	> 100	> 100	> 100	31.2	> 100	16.9	33.3	89.4	> 100	> 100	> 100	> 100	> 100
CCOC(=O)C(C(=O)OCC)=C1C=C(c2ccccc2)c2ccccc21		> 100		> 100				> 100		62.9		> 100		> 100		> 100		> 100		> 100
Cc1ccc(NC(=S)NNC(=S)Nc2ccc(C)cc2)cc1	3.61	> 100	3.63	> 100	3.66	> 100	> 100	> 100	2.96	> 100	8.36	> 100	2.9	7.51	6.03	> 100	5.46	> 100		
COC(=O)C1C(C(=O)O)C2(c3ccccc3)C(=O)C1(c1ccccc1)C(c1ccc(OC)cc1)=C2c1ccc(OC)cc1 (configuration not stated)			27	74.6	20.9	43.6	21.9	55.6	23.2	46.2	22.4	77.3	17.3	41.2	15.7	33.5	17.7	34	20.4	47.5
CCCCCCCCCCCCCCCC(=O)NS(=O)(=O)OC[C@H]1O[C@@H](n2cnc3c(N)ncnc32)[C@H](O)[C@@H]1O	0.0402	0.342	< 0.0421	3.01			< 0.0245	< 0.0497	< 0.03	< 0.048	0.0191	0.157		0.124	1.67	3.82	0.118	0.359	< 0.0198	
